Reference: ChEMBL document CHEMBL1129521, “Molecular modeling of azole antifungal agents active against Candida albicans. 1. A comparative molecular field analysis study” (1996)

Test system: Candida albicans
Assay: In vitro antimycotic activity of compound against Candida albicans was determined as -log MIC90 compound to that of -log MIC90 bifonazole
Type: functional

`COc1ccc(C(Cc2ccc(N)cc2)n2ccnc2)cc1` (stereo unspecified) gave a Ratio of 0.3.

For `Fc1ccc(-n2ccc(C(c3ccc(Cl)cc3)n3ccnc3)c2)cc1` (stereo unspecified), the Ratio was 0.3.

Compound `COc1ccc(C(Cc2ccc(Cl)cc2Cl)n2ccnc2)cc1` (stereo unspecified) has a Ratio of 0.6.

`COc1ccc(C(Cc2ccc(Cl)cc2)n2cnnc2)cc1` (stereo unspecified) showed a Ratio of 1.8.

`COc1ccc(C(Cc2ccc([N+](=O)[O-])cc2)n2ccnc2)cc1` (stereo unspecified) was tested, and the Ratio was 1.5.

Compound `Cc1ccc(C(c2ccn(-c3ccccc3)c2)n2ccnc2)cc1` (stereo unspecified) has a Ratio of 0.

Compound `COc1ccc(C(Cc2ccccc2F)n2ccnc2)cc1` (stereo unspecified) has a Ratio of 1.8.

Compound `O=[N+]([O-])c1ccc(C(c2ccc(Cl)cc2)n2ccnc2)cc1` (stereo unspecified) has a Ratio of 0.

`c1ccc(C(c2ccn(-c3ccccc3)c2)n2ccnc2)cc1` (stereo unspecified) gave a Ratio of 0.6.

`COc1ccc(-c2cn(Cc3ccc(Cl)cc3Cl)cc2C(c2ccccc2)n2ccnc2)cc1` (stereo unspecified) gave a Ratio of 1.8.

For `CCC(c1ccc(Cl)cc1)C(c1ccc(OC)cc1)n1cncn1` (stereo unspecified), the Ratio was 1.5.

In the case of `COc1ccc(CC(c2ccc(OC)cc2)n2ccnc2)cc1` (stereo unspecified), the Ratio is reported as 0.9.

Work on `COc1ccc(C(Cc2ccc(Cl)cc2)n2ccnc2)cc1` (stereo unspecified) yielded a Ratio of 0.6.

In the case of `COc1ccc(C(Cc2cccc(F)c2)n2ccnc2)cc1` (stereo unspecified), the Ratio is reported as 1.8.

`Cn1cc(-c2ccccc2)c(C(c2ccc3ccccc3c2)n2ccnc2)c1` (stereo unspecified) was tested, and the Ratio was 2.4.

With `c1ccc(-c2c[nH]cc2C(c2cccc3ccccc23)n2ccnc2)cc1` (stereo unspecified) the Ratio was 0.9.

`Clc1ccc(-c2cn(Cc3ccc(Cl)cc3Cl)cc2C(c2ccccc2)n2ccnc2)cc1` (stereo unspecified) was tested, and the Ratio was 1.8.

Compound `CCC(c1ccc(Cl)cc1)C(c1ccc(OC)cc1)n1cnnc1` (stereo unspecified) has a Ratio of 1.8.

Work on `COc1ccc(C(Cc2ccc(F)cc2)n2ccnc2)cc1` (stereo unspecified) yielded a Ratio of 1.2.

In the case of `Cc1ccc(C(c2ccc(NC(=O)c3ccc(Cl)cc3Cl)cc2)n2ccnc2)cc1` (stereo unspecified), the Ratio is reported as 0.

`COc1ccc(C(Cc2cccc(Cl)c2)n2ccnc2)cc1` (stereo unspecified) gave a Ratio of 1.5.

With `Cc1ccc(-c2cn(C)cc2C(c2ccccc2)n2ccnc2)cc1` (stereo unspecified) the Ratio was 0.6.

In the case of `COc1ccc(C(C(Cc2ccc(Cl)cc2Cl)c2ccc(Cl)cc2)n2cncn2)cc1` (stereo unspecified), the Ratio is reported as 1.8.

Work on `Fc1ccc(-c2c[nH]cc2C(c2ccccc2)n2ccnc2)cc1` (stereo unspecified) yielded a Ratio of 0.

For `COc1ccc(C(Cc2cccc(-n3cccc3)c2)n2ccnc2)cc1` (stereo unspecified), the Ratio was 1.8.

With `Cn1cc(-c2ccc(F)cc2)c(C(c2ccccc2)n2ccnc2)c1` (stereo unspecified) the Ratio was 0.6.

In the case of `Cc1ccc(C(c2ccn(-c3ccc(F)cc3)c2)n2ccnc2)cc1` (stereo unspecified), the Ratio is reported as 0.3.

For `Cc1ccc(C(c2ccc(-n3cccc3)cc2)n2ccnc2)cc1` (stereo unspecified), the Ratio was 0.9.

With `COc1ccc(C(Cc2ccc(Cl)cc2)n2cncn2)cc1` (stereo unspecified) the Ratio was 1.5.

Compound `COc1ccc(C(Cc2ccccc2Cl)n2ccnc2)cc1` (stereo unspecified) has a Ratio of 1.8.

`Cn1cc(-c2ccccc2)c(C(c2cccc3ccccc23)n2ccnc2)c1` (stereo unspecified) was tested, and the Ratio was 1.5.

Compound `CCC(c1ccc([N+](=O)[O-])cc1)C(c1ccc(OC)cc1)n1ccnc1` (stereo unspecified) has a Ratio of 0.9.

In the case of `Cn1cc(-c2ccccc2)c(C(c2ccccc2)n2ccnc2)c1` (stereo unspecified), the Ratio is reported as 0.6.

`COc1ccc(C(Cc2ccccc2[N+](=O)[O-])n2ccnc2)cc1` (stereo unspecified) gave a Ratio of 2.1.

With `COc1ccc(C(Cc2ccccc2-n2cccc2)n2ccnc2)cc1` (stereo unspecified) the Ratio was 0.9.

`O=[N+]([O-])c1ccc(C(c2ccccc2)n2ccnc2)cc1` (stereo unspecified) showed a Ratio of 0.3.

Compound `COc1ccc(C(C(Cc2ccc(Cl)cc2Cl)c2ccc(Cl)cc2)n2ccnc2)cc1` (stereo unspecified) has a Ratio of 1.2.

`COc1ccc(C(Cc2ccc(Cl)cc2Cl)C(c2ccc(OC)cc2)n2ccnc2)cc1` (stereo unspecified) gave a Ratio of 1.5.

`Fc1ccc(C(c2ccn(-c3ccc(F)cc3)c2)n2ccnc2)cc1` (stereo unspecified) was tested, and the Ratio was 0.

For `Cn1cc(-c2ccc(Cl)cc2)c(C(c2ccccc2)n2ccnc2)c1` (stereo unspecified), the Ratio was 0.

`Clc1ccc(Cn2cc(-c3ccccc3)c(C(c3ccccc3)n3ccnc3)c2)c(Cl)c1` (stereo unspecified) showed a Ratio of 1.5.

Compound `Cc1ccc(C(c2ccc([N+](=O)[O-])cc2)n2ccnc2)cc1` (stereo unspecified) has a Ratio of 0.3.

Work on `Fc1ccc(-n2ccc(C(c3ccccc3)n3ccnc3)c2)cc1` (stereo unspecified) yielded a Ratio of 0.6.

Work on `c1ccc(-c2c[nH]cc2C(c2ccc3ccccc3c2)n2ccnc2)cc1` (stereo unspecified) yielded a Ratio of 0.9.

In the case of `Clc1ccc(-n2ccc(C(c3ccccc3)n3ccnc3)c2)cc1` (stereo unspecified), the Ratio is reported as 0.3.

`Cc1ccc(C(c2ccn(-c3ccc(Cl)cc3)c2)n2ccnc2)cc1` (stereo unspecified) showed a Ratio of 0.

`COc1ccc(CC(c2ccc(OC)cc2)n2cnnc2)cc1` (stereo unspecified) gave a Ratio of 1.8.

`c1ccc(C(c2ccc(-n3cccc3)cc2)n2ccnc2)cc1` (stereo unspecified) showed a Ratio of 0.6.

Work on `Clc1ccc(C(c2ccc(-n3cccc3)cc2)n2ccnc2)cc1` (stereo unspecified) yielded a Ratio of 0.3.

For `Cc1ccc(-c2cn(Cc3ccc(Cl)cc3Cl)cc2C(c2ccccc2)n2ccnc2)cc1` (stereo unspecified), the Ratio was 1.8.

For `Nc1ccc(C(c2ccccc2)n2ccnc2)cc1` (stereo unspecified), the Ratio was 0.3.

`Fc1ccc(C(c2ccn(-c3ccc(Cl)cc3)c2)n2ccnc2)cc1` (stereo unspecified) was tested, and the Ratio was 0.3.

`Fc1ccc(C(c2ccn(-c3ccccc3)c2)n2ccnc2)cc1` (stereo unspecified) was tested, and the Ratio was 0.3.

Compound `Clc1ccc(C(c2ccn(-c3ccc(Cl)cc3)c2)n2ccnc2)cc1` (stereo unspecified) has a Ratio of 0.6.

With `Clc1ccc(-c2c[nH]cc2C(c2ccccc2)n2ccnc2)cc1` (stereo unspecified) the Ratio was 0.3.

With `c1ccc(-c2ccc(C(c3ccccc3)n3ccnc3)cc2)cc1` (stereo unspecified) [BIFONAZOLE] the Ratio was 0.
